In the NIST ThermoML archive (doi:10.1021/acs.jced.8b01204) one finds speed of sound and mass density data, which are given here for 5 compounds.

The conditions of series [1]: 101 kPa, Liquid; for speed of sound: Single path-length method; for mass density: Vibrating tube method.
Series [2] in a line: xn = mol fraction of the nth substance listed. As to conditions: 101 kPa, Liquid, x2 = 0; for speed of sound: Single path-length method; for mass density: Vibrating tube method.

± gives the expanded uncertainty stated by the source.

Broadly, the speed of sound is how fast a sound wave travels through the sample. Broadly, the mass density is the mass of a sample divided by its volume. With `C[N+]1(CC2CO2)CCCC1=O.O=C([O-])c1ccccc1O` (stereo not given) [1-methyl-1-(oxiran-2-ylmethyl)-2-oxopyrrolidinium salicylate], the speed of sound in series [1] (293.15 K) came to 1634.2 ± 6.3 m/s; in series [1] (298.15 K) it was 1614.5 ± 6.3 m/s; in series [1] (303.15 K), 1595.7 ± 6.3 m/s; in series [1] (308.15 K), 1577.6 ± 6.3 m/s; in series [1] (313.15 K) it was 1559.5 ± 6.3 m/s. Also, the mass density is reported as 1209.8 ± 3.2 kg/m3 in series [1] (293.15 K); 1205.5 ± 3.2 kg/m3 in series [1] (298.15 K); 1201.3 ± 3.2 kg/m3 in series [1] (303.15 K); 1197.2 ± 3.2 kg/m3 in series [1] (308.15 K); 1193 ± 3.2 kg/m3 in series [1] (313.15 K).
`CC(=O)O` [acetic acid]: the speed of sound in series [1] (293.15 K) is 1159.3 ± 6.1 m/s; in series [1] (298.15 K), 1142.8 ± 6.1 m/s; in series [1] (303.15 K), 1126.3 ± 6.1 m/s; in series [1] (308.15 K) it was 1109.6 ± 6.1 m/s; in series [1] (313.15 K), 1094.8 ± 6.1 m/s. Further, the mass density in series [1] (293.15 K) is listed as 1052.5 ± 3 kg/m3; in series [1] (298.15 K), 1046.9 ± 3 kg/m3; in series [1] (303.15 K), 1041.4 ± 3 kg/m3; in series [1] (308.15 K), 1035.8 ± 3 kg/m3; in series [1] (313.15 K), 1030 ± 3 kg/m3.
`CC(=O)O` [acetic acid] + C[N+]1(CC2CO2)CCCC1=O.O=C([O-])c1ccccc1O: the speed of sound in series [2] (293.15 K) is 1159.3 ± 6.1 m/s; in series [2] (298.15 K) it was 1142.8 ± 6.1 m/s; in series [2] (303.15 K) it was 1126.3 ± 6.1 m/s; in series [2] (308.15 K), 1109.6 ± 6.1 m/s; in series [2] (313.15 K), 1094.8 ± 6.1 m/s. For the same compound, the mass density turned out to be 1052.5 ± 3 kg/m3 in series [2] (293.15 K); 1046.9 ± 3 kg/m3 in series [2] (298.15 K); 1041.4 ± 3 kg/m3 in series [2] (303.15 K); 1035.8 ± 3 kg/m3 in series [2] (308.15 K); 1030 ± 3 kg/m3 in series [2] (313.15 K).
As for `CCC(=O)O` [propanoic acid], the speed of sound worked out at 1166.3 ± 6.1 m/s in series [1] (293.15 K); 1148.1 ± 6.1 m/s in series [1] (298.15 K); 1129.7 ± 6.1 m/s in series [1] (303.15 K); 1111.3 ± 6.1 m/s in series [1] (308.15 K); 1092.8 ± 6.1 m/s in series [1] (313.15 K). The mass density in series [1] (293.15 K) was determined as 993.8 ± 3 kg/m3; in series [1] (298.15 K), 988.4 ± 3 kg/m3; in series [1] (303.15 K), 983 ± 3 kg/m3; in series [1] (308.15 K) it was 977.6 ± 3 kg/m3; in series [1] (313.15 K), 972.2 ± 3 kg/m3.
Turning to `CCC(=O)O` [propanoic acid] + C[N+]1(CC2CO2)CCCC1=O.O=C([O-])c1ccccc1O, the speed of sound in series [2] (293.15 K) was determined as 1166.3 ± 6.1 m/s; in series [2] (298.15 K), 1148.1 ± 6.1 m/s; in series [2] (303.15 K), 1129.7 ± 6.1 m/s; in series [2] (308.15 K), 1111.3 ± 6.1 m/s; in series [2] (313.15 K) it was 1092.8 ± 6.1 m/s. The mass density is 993.8 ± 3 kg/m3 in series [2] (293.15 K); 988.4 ± 3 kg/m3 in series [2] (298.15 K); 983 ± 3 kg/m3 in series [2] (303.15 K); 977.6 ± 3 kg/m3 in series [2] (308.15 K); 972.2 ± 3 kg/m3 in series [2] (313.15 K).
